Reference: publication PMC3510196, “Cloning and Characterization of a P2X Receptor Expressed in the Central Nervous System of Lymnaea stagnalis” (PLoS ONE, 2012)

How the values were obtained:
Test in all cases: two-electrode voltage clamp, Xenopus oocytes
Assay type in all cases: cell-based
LymP2X [1] = biological target: T1, LymP2X (Lymnaea stagnalis, UniProt K7QP77)
T1 construct: full-length, 435 residues, shorter clone starting at second in-frame ATG; cRNA injected in Xenopus oocytes; homotrimer expected (P2X family); differs from contig FX193730 in 50 residues of the cysteine-rich head (possible alternative exon)
T1 sequence (K7QP77 1-435): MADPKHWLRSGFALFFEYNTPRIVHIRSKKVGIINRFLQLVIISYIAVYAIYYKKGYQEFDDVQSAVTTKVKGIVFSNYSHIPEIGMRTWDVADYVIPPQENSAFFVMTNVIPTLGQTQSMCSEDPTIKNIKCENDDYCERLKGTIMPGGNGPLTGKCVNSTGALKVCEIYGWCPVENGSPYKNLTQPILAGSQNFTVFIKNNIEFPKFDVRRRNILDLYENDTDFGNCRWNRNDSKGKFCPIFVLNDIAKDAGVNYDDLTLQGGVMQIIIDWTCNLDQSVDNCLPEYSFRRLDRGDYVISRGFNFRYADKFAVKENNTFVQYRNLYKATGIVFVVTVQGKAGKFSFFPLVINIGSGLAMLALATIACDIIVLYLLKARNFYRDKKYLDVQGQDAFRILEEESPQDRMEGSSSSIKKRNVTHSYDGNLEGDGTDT

LymP2X clone 11 = biological target: T2, LymP2X clone 11 (Lymnaea stagnalis, UniProt K7QP77, INS0MTTK)
T2 construct: full-length plus N-terminal MTTK (upstream in-frame ATG at nucleotide 3) added to LymP2X (GenBank JX524180); Xenopus oocytes
T2 sequence (K7QP77 1-435 INS0MTTK): T1 sequence (K7QP77 1-435)

LymP2X [2] = biological target: T1, LymP2X; remark: listed apart in the source
LymP2X [3] = biological target: T1, LymP2X; conditions: weak agonist; pH 7.5, 1.8 mM Ba2+ in place of Ca2+, -60 mV

Row | SMILES | EC50 (LymP2X [1]) [µM] | IC50 (LymP2X [2]) [µM] | other results
1 | Nc1ncnc2c1ncn2[C@@H]1O[C@H](COP(=O)(O)OP(=O)(O)OP(=O)(O)O)[C@@H](O)[C@H]1O [ATP] | 6.2 |  | EC50 (LymP2X clone 11): 5.8 µM
2 | Nc1ncnc2c1ncn2[C@@H]1O[C@H](COP(=O)(O)OP(=O)(O)OP(=O)(O)O)[C@@H](OC(=O)c2ccc(C(=O)c3ccccc3)cc2)[C@H]1O [BzATP] | 2.4 |  | 
3 | Cc1nc(N=Nc2ccc(S(=O)(=O)O)cc2S(=O)(=O)O)c(COP(=O)(O)O)c(C=O)c1O [PPADS] |  | 8.1 | 
4 | Cc1ccc(C(=O)Nc2ccc(S(=O)(=O)O)c3cc(S(=O)(=O)O)cc(S(=O)(=O)O)c23)cc1NC(=O)c1cccc(NC(=O)Nc2cccc(C(=O)Nc3cc(C(=O)Nc4ccc(S(=O)(=O)O)c5cc(S(=O)(=O)O)cc(S(=O)(=O)O)c45)ccc3C)c2)c1 [suramin] |  | 27.4 | 
5 | Nc1ncnc2c1ncn2[C@@H]1O[C@H](COP(=O)(O)CP(=O)(O)OP(=O)(O)O)[C@@H](O)[C@H]1O [αβmeATP] |  |  | % of 10 μM ATP response at 100 μM (LymP2X [3]): 36.9±10.6%
